From a melting point compilation (Tetko et al.)

| SMILES | melting point |
| --- | --- |
| COC(=O)C1=C(C(=O)OC)C2(CCl)c3ccccc3C1c1ccccc12 | 169 °C |
| CC(=O)OC1CCC2(C)C(CCC3C4CC=C(C=Cc5ccccc5)C4(C)CCC32)C1 (configuration not stated) | 119 °C |
| CCCCCCCCC(=O)OCCCCC | -27 °C |
| Cc1nc(/C(C#N)=C/c2ccc(F)cc2)sc1/N=N/c1c(Br)cc(Br)cc1Br | 170 °C |
| Cc1nc2ccccc2c2c1C(=O)NC2=O | 255 to 256 °C |
| O=C(O)CCCCCCCCCCCC(=O)O | 112 to 114 °C |
| O=Cc1cccc(-c2ccc(C(=O)O)cc2)c1 | 231 to 233 °C |
| Cc1nc2ccc(C(=O)O)cc2nc1C | 230 °C |
| COc1ccc(C=O)cn1 | 46 to 54 °C |
| CC1(C)C=[N+]([O-])C(C)(C)N1O | 160 to 163 °C |
| BrC(Br)(Br)c1ccc2cc3ccc(C(Br)(Br)Br)nc3cc2n1 | 190 °C |
| CC(=O)OCCOCCOCCOC(C)=O | -50 °C |
| Fc1ccc(C=Nn2c(C(F)(F)F)n[nH]c2=S)cc1 | 276 °C |
| O=[N+]([O-])c1ccc(Oc2ccc(C(F)(F)F)cc2Cl)cc1 | 68 °C |
| CCCCCCCCCCCCCCS | 7 °C |
| NC(=O)C(F)(Br)C(F)(F)F (configuration not stated) | 83 to 84 °C |
| Cc1oc(-c2ccccc2)nc1CN | 42 to 46 °C |
| COP(=S)(OC)Oc1ccc(S(=O)(=O)N(C)C)cc1 | 53 °C |
| COc1ccc(C=CC(=O)c2ccccc2)c(OC)c1 | 69 to 70 °C |
| Brc1ccc2ncccc2c1 | 24 °C |
| c1ccc(C2CCNCC2)cc1 | 60.5 °C |
| COc1ccc(C2C(C#N)=C(N)Oc3[nH]nc(C(F)(F)F)c32)cc1 (configuration not stated) | 204 °C |

| SMILES | melting point |
| --- | --- |
| Clc1cc(Cl)c2oc3c(Cl)c(Cl)cc(Cl)c3c2c1 | 204 °C |
| COc1cc(CCC(=O)O)ccc1O | 90 °C |
| Cc1ccc(-c2ccccc2)cc1C | 29.5 °C |
| Ic1cc(I)c(I)cc1I | 254 °C |
| Nc1cccnc1[N+](=O)[O-] | 194 to 196 °C |
| O=C(C[N+](=O)[O-])c1ccccc1 | 101 to 106 °C |
| CC(C)(c1cc(Cl)c(O)c(Cl)c1)c1cc(Cl)c(O)c(Cl)c1 | 135 °C |
| CNCc1ccccc1 | -24 °C |
| ON=Cc1c(Cl)cccc1Cl | 149 °C |
| c1ccc2sc(SSc3nc4ccccc4s3)nc2c1 | 180 °C |
| O=C(O)[C@@H]1Cc2c([nH]c3ccccc23)CN1 | 295 to 296 °C |
| CCCCCC(=O)OCC(COC(=O)CCCCC)OC(=O)CCCCC | -60 °C |
| CC(=O)Nc1ccc(Br)c(Cl)c1 | 125 to 128 °C |
| COc1c(F)cc(O)cc1F | 69 °C |
| NNC(=O)c1cccc(Cl)c1 | 158 °C |
| OCc1cccc(-c2ccsc2)c1 | 88 to 90 °C |
| COC(=O)CC[C@H](N)C(=O)O | 182 °C |
| NC(=S)COc1cccc(Cl)c1 | 122 to 124 °C |
| Nc1cc(F)ccc1F | 14 °C |
| C#CC1(O)CCC2(C)C3CCC4(C)C(=O)CCC4C3CCC2(C)C1 (configuration not stated) | 238 °C |
| Cc1cccc(C(=O)Cl)c1 | -23 °C |
| CCN(CCO)c1ccc(N=Nc2ccc([N+](=O)[O-])cc2Cl)cc1 | 133 °C |

| SMILES | melting point |
| --- | --- |
| O=C(Cl)c1ccc(Cl)c(Cl)c1 | 32 °C |
| CC(C)(Oc1ccc(Cl)cc1)C(=O)OCc1cccnc1 | 48.5 °C |
| O=C1CCCN1CCO | 20 °C |
| Cc1cscc1S(=O)(=O)c1ccc(Cl)cc1 | 102 to 104 °C |
| CNC(=S)Nc1cc(OC)c(OC)cc1C(c1ccc(C)o1)c1ccc(C)o1 | 165 °C |
| O=C1CCSc2ccc(Cl)cc21 | 64 to 65 °C |
| Cc1nc(Br)sc1C(=O)O | 149 to 150 °C |
| Cc1cccnc1C(N)=NO | 94 to 95 °C |
| Cc1nc(-c2cccc(N)c2)no1 | 95 to 96 °C |
| Clc1nccc(-c2ccccc2)n1 | 86 to 87 °C |
| Cc1nc2ccccc2n1CCCC(=O)O | 234 to 238 °C |
| Cc1cc(C)n(N=Cc2ccc([N+](=O)[O-])cc2)c(=O)c1C#N | 260 to 261 °C |
| CCC1(CC)C(=O)NCC(C)C1=O (configuration not stated) | 76 °C |
| C=COCC(C)C | -112 °C |
| Cn1sc(Cl)cc1=O | 52 °C |
| Cn1c(=S)[nH]c2ccccc2c1=O | 271 to 272 °C |
| Nc1ncnc2c1ncn2[C@H]1C=C[C@@H](CO)O1 | 189 to 191 °C |
| OC(c1ccc(F)cc1)C(O)c1ccc(F)cc1 (configuration not stated) | 153 °C |
| CC1(C)C(N)=[N+]([O-])C(c2ccccc2)N1O (configuration not stated) | 208 to 210 °C |
| CCOC(=O)c1ccc(CBr)cc1 | 30.5 °C |
| CC(=O)OOC(C)=O | 30 °C |
| CCCCCCCCCCOC(C)=O | -15 °C |

| SMILES | melting point |
| --- | --- |
| O=c1cc(C(F)(F)F)c2cc(Cl)c(O)cc2o1 | 178 to 182 °C |
| CNC(=O)Oc1ccccc1C(C)C | 94 °C |
| Clc1ccc(Cc2c(N=Cc3ccccc3)n[nH]c2N=Cc2ccccc2)cc1 | 180 to 182 °C |
| O=C(Cc1ccc(Oc2ccccc2)cc1)c1ccccc1 | 58.3 to 59.9 °C |
| O=Cc1cc2nccnc2s1 | 108 to 109 °C |
| CCCCc1cc2ccccc2c(OCCN(C)C)n1 | 146 °C |
| COc1ccc2c(c1)CCC2=O | 109 °C |
| COc1ccc(-c2cc(N3CCCC3)cc3c2c(=O)n(-c2ccccc2)n3C)cc1 | 217 °C |
| O=C(O)c1cccc(C(=O)O)c1C(=O)O | 200 °C |
| O=C(O)Cc1ccc([N+](=O)[O-])cc1 | 154 °C |
| Cc1c(C)c2c(c3c1C(=O)C3)CC2=O | 207 °C |
| COc1ccc(Br)c(C(=O)CC#N)c1 | 92 to 93 °C |
| O=C(O)C1COc2ccccc2O1 (configuration not stated) | 125 to 128 °C |
| OCc1ccc(I)cc1 | 73 °C |
| CC(=O)Oc1ccc2c3c1OC1C(OC(C)=O)C=CC4C(C2)N(C)CCC341 (configuration not stated) | 173 °C |
| Nc1ccc(I)cn1 | 128 °C |
| CC1CCC(C(C)C)C(OC(=O)C(Cc2ccccc2)c2ccccc2)C1 (configuration not stated) | 101 °C |
| O=C(O)c1ccccc1SSc1ccccc1C(=O)O | 288 °C |
| Cc1cc(Cl)ccc1Cl | 5 °C |
| Nc1c(C(=O)O)cnc2c(C(=O)O)cnn12 | 256 °C |
| CC(C)(C)OC(=O)N[C@@H](C=O)Cc1ccccc1 | 85 to 89 °C |
| CC1CCC(C)(COC(=O)c2ccc([N+](=O)[O-])cc2)C1(C)C (configuration not stated) | 95 °C |

| SMILES | melting point |
| --- | --- |
| COC(=O)c1cc([N+](=O)[O-])ccc1SC | 130 to 132 °C |
| CCOC(=O)c1c(C)n[nH]c1N | 108 °C |
| CC(=O)N1CCC[C@H]1C(=O)O | 118 °C |
| Oc1cccc2c(O)nccc12 | 270 to 275 °C |
| CC(C)(OC1CCCCC1)C(=O)O | 75 °C |
| COc1ccc(C=C2SC(=S)N(CNc3ccc([N+](=O)[O-])cc3)C2=O)cc1 | 176 °C |
| Cc1nc(-c2cccc(CBr)c2)no1 | 71 to 72 °C |
| CC12CCC(C3(CCC(=O)O3)C1=O)C2(C)C (configuration not stated) | 207 °C |
| O=C(Nc1nc2ccccc2s1)C(F)(F)C(F)(F)C(F)(F)C(F)(F)C(F)(F)C(F)(F)C(F)(F)C(F)(F)F | 168 to 170 °C |
| CCCCCCCCCCCCCCCC=O | 35 °C |
| N#Cc1c[nH]cc1-c1cccc(Cl)c1Cl | 150 °C |
| N#C/C(=C/c1ccc(Cl)cc1Cl)c1nc(-c2ccc([N+](=O)[O-])cc2)cs1 | 210 °C |
| OCCC12CC3CC(CC(C3)C1)C2 | 74 °C |
| Cc1nc(-c2ccc(N=C=O)cc2)cs1 | 80 to 81 °C |
| O=C(NC(CC=Cc1ccccc1)C(=O)O)OCC1c2ccccc2-c2ccccc21 (configuration not stated) | 142 °C |
| O=C(O)C1CC(=O)N(Cc2ccco2)C1 (configuration not stated) | 159 to 160 °C |
| COc1ccc2c3c1OC1CC(O)C=CC31CCN(C)C2 (configuration not stated) | 126 °C |
| Cc1cccc(NC(=O)c2nn(-c3ccccc3)nc2C)n1 | 136 to 137 °C |
| Nc1c(Br)cc(Br)cc1C(O)c1ccccc1 (configuration not stated) | 152 °C |
| O=C(O)c1ccc2nsnc2c1 | 229 to 231 °C |
| OCc1cc(C(F)(F)F)ccc1Br | 72 °C |
| C=C(C)C=CC(=C)C | -9 °C |

| SMILES | melting point |
| --- | --- |
| COC(=O)C1=C(C)NC(=S)NC1c1ccccc1 (configuration not stated) | 224 to 225 °C |
| O=C(O)c1cc(Br)ccc1Cl | 160 °C |
| Clc1ccc(C=NCCN=Cc2ccc(Cl)cc2)cc1 | 125 °C |
| Clc1nccc(-c2cccs2)n1 | 127 to 129 °C |
| Cc1cc(/C=C/c2ccccc2N)c([N+](=O)[O-])cc1[N+](=O)[O-] | 175 °C |
| CCOC(=O)C(=NNc1ccccc1[N+](=O)[O-])C(C)=O | 73 to 74 °C |
| O=C1C(c2ccccc2)C(c2ccccc2)N1c1ccccc1 (configuration not stated) | 134 °C |
| CO[C@]1(CBr)O[C@H](COC(=O)c2ccc(C)cc2)[C@@H](OC(=O)c2ccc(C)cc2)[C@@H]1OC(=O)c1ccc(C)cc1 | 148 to 149 °C |
| O=C(Cl)c1cccnc1Cl | 40 °C |
| Cc1ccncc1C#N | 43 °C |
| C[C@]1(O)C#CCCCCC#C[C@](C)(O)CC1 | 144 °C |
| CC1CCSCC1 | -28 °C |
| CCOC(=O)CC(=O)c1ccc([N+](=O)[O-])cc1 | 72 °C |
| CCCCCCCCCCCCCCCCCCOP1OCC2(CO1)COP(OCCCCCCCCCCCCCCCCCC)OC2 (configuration not stated) | 41.5 °C |
| O=C1OC(=O)c2cc3ccccc3cc21 | 249 °C |
| N#CC1(c2ccc(F)cc2)CCC(=O)CC1 | 93 °C |
| O=[N+]([O-])c1cccc(-n2cccc2)c1 | 72 to 74 °C |
| CCC(c1ccc2cc(OC)ccc2c1)C(C)(C)C(=O)O (configuration not stated) | 140 °C |
| Cc1cc(I)cnc1Br | 45 °C |
| COc1cc(C)nc(-n2nc(C)cc2OC)n1 | 91 °C |
| Cn1nc(-c2cccs2)cc1CCl | 96 to 97 °C |
| Cn1c(N)c(N=O)c(=O)[nH]c1=O | 300 °C |
